This assay deals with HMPV clinical isolate A2 strain TN 94-49. Nature of the assay: HMPV antiviral assay, Method 2 (LLC-MK2 cells with CP-100-356, ATP-Lite). Format: cell-based. The note with it: human metapneumovirus. As to the method:
In vitro HMPV antiviral activity was evaluated using the clinical isolate A2 strain TN 94-49 (obtained from Dr. John Williams, Vanderbilt University, Tennessee) and LLC-MK2 cells (Millipore Sigma CB_85062804), an immortalized kidney epithelial cell line from Macaca mulatta. Compounds were resuspended in dimethyl sulfoxide (DMSO) at 10 mM, serially diluted and added to a 384-well source plate. Subsequently, the compounds were diluted and transferred onto 384-well assay plates using the Echo-650 automated liquid handling system (Beckman Coulter, Indiana). The test compounds were assessed in duplicate at a top concentration of 200 nM followed by 2.5-fold serial dilutions to give a total of 10 concentration points. DMSO control wells were also included on the assay plates and were either infected or not, acting as positive and negative controls. A2 TN 94-49 virus infections were performed in-suspension with LLC-MK2 cells. The cells were washed twice with PBS and removed from the cell-culture flask with 0.25% trypsin-EDTA (Thermo Fisher Scientific, MA). The trypsin-EDTA was inactivated by resuspending in 2% fetal bovine serum (FBS) and OptiMEM (ThermoFisher Scientific, MA) containing 1% antibiotic-antimycotic. Cells were pelleted by centrifuging for 5 minutes at 800 rpm, the supernatant was removed, and cells were re-suspended and washed in PBS plus 100 μg/mL CaCl2). This step was performed twice. Cells were then re-suspended in serum-free (SF)-OptiMEM containing 4 μg/mL TPCK-Trypsin (Sigma Aldrich, MO), 1% antibiotic-antimycotic (ThermoFisher Scientific, MA), 100 μg/mL CaCl2), and 4 μM of CP-100-356, a P-glycoprotein inhibitor. Cells were counted and seeded at a density of 5,000 cells/well, 12.5 μL/well. Virus infections were done at a multiplicity of infection (MOI) of 0.16 with 12.5 μL added per well. Virus infections were performed in infection media which contained SF-OptiMEM, 100 μg/mL CaCl2) and 1% antibiotic-antimycotic. HMPV viral stocks are suspended in infection media+5% glycerol, thus an equal volume of infection media+5% glycerol was added to uninfected wells to equalize the final % glycerol across all wells of the assay plate. The final concentration of TPCK-trypsin was 2 μg/mL. The final concentration of CP-100-356 was 2 μM. The assay plates were incubated at 37° C., 5% CO2 for 7 days. After 7 days incubation, 12.5 μL of ATP-Lite (PerkinElmer, MA) was added to each well and the raw luminescence values were determined using the Envision 2104 (Perkin Elmer, MA). The average of the raw luminescence values for the cells and virus only positive control wells was subtracted from all conditions tested and the percent cell health was determined by dividing these values by the average of the cells only negative control wells. EC50 values were then calculated by non-linear regression using a four-parameter curve logistic equation. The curve fit model employed was XLFit Dose Response One Site Model 200: y=(A+(B/(1+((x/C)^D)))), where A is the minimum y value, B is the maximum y value, C is the log EC50 value, and D is the slope factor.

Setting [1] is: 168 h, hMPV A2 TN/94-49, LLC-MK2 cells with 4 μM CP-100-356, 7 days, ATP-Lite.
Setting [2] is: hMPV A2 TN/94-49, LLC-MK2 cells with CP-100-356, Method 2.

The source of these data is US20240368174A1, “Antiviral Heterocyclic Compounds” (Enanta Pharmaceuticals, Inc., priority 2023, published 2024).

Consider `COc1cc(C(=O)NC[C@](O)(c2cc3c(c(-c4ccnc(C5CCOCC5)c4Cl)n2)OC[C@]3(C)C(N)=O)C2CC2)cc2cn(C3(F)CC3)nc12` [Example 905], for which, under setting [1], the EC50 was over 200 nM.

Under setting [2], `COc1cc(C(=O)NC[C@@](O)(c2cccc(F)c2)c2cc3c(c(-c4ccc5c(c4Cl)OC(F)(F)O5)n2)OC[C@]3(C)C(N)=O)cc2oc(C)nc12` [Example 285] registered an EC50 of under 200 nM.

Turning to `COc1cc(C(=O)NC[C@@](O)(c2ccccc2)c2cc3c(c(-c4cc(Cl)ccc4F)n2)OC[C@]3(C)C(N)=O)cc2oc(C3CC3)nc12` [Example 331], under setting [2], the EC50 is under 200 nM.

For the molecule `COc1cc(C(=O)NC[C@@](O)(c2ccnc(F)c2)c2cc3c(c(-c4cccc(Cl)c4Cl)n2)OC[C@]3(C)C(N)=O)cc2cn(C3CC3)nc12` [Example 492], the EC50 under setting [2] was under 200 nM.

In turn, `COc1cc(C(=O)NC[C@](O)(c2cc3c(c(-c4ccnc(C(C)C)c4Cl)n2)OC[C@]3(C)C(N)=O)C2CC2)cn2cc(C3CC3)nc12` [Example 911] yielded a half-maximal effective concentration (EC50) under setting [1] of over 200 nM.

For the molecule `COc1cc(C(=O)NC[C@](O)(c2cc3c(c(-c4ccnc(F)c4)n2)OC[C@]3(C)C(N)=O)C2CC2)cc2cn(C3CC3)nc12` [Example 121], the half-maximal effective concentration (EC50) under setting [2] was over 200 nM.

With `COc1c(F)ccc(-c2nc([C@@](O)(CNC(=O)c3cc(OC)c4nn(C5(F)CC5)cc4c3)c3ccccc3)cc3c2OC[C@]3(C)C(N)=O)c1Cl` [Example 375], the EC50 under setting [2] is under 200 nM.

In turn, `COc1cc(C(=O)NC[C@](O)(c2cc3c(c(-c4ccnc(C(C)C)c4Cl)n2)OC[C@]3(C)C(N)=O)C2CC2)cc2oc(C3CC3)nc12` [Example 909] displayed an EC50 under setting [1] of over 200 nM.

As to `COc1cc(C(=O)NC[C@](O)(c2cc3c(c(-c4ccnc(C)c4F)n2)OC[C@]3(C)C(N)=O)C2CC2)cc2cn(C3CC3)nc12` [Example 817], the EC50 under setting [1] is under 200 nM.

In turn, `COc1cc(C(=O)NC[C@](O)(c2cc3c(c(-n4ncc5c(F)cccc54)n2)OC[C@]3(C)C(N)=O)C2CC2)cc2cc(C3CC3)nn12` [Example 626] displayed an EC50 under setting [1] of under 200 nM.

Under setting [2], `COc1cc(C(=O)NC[C@@](O)(c2ccnc(N)c2)c2cc3c(c(-c4cc(Cl)c(F)cc4F)n2)OC[C@]3(C)C(N)=O)cc2cn(C3CC3)nc12` [Example 484] came in with a concentration for a half-maximal effect (EC50) of under 200 nM.

As for `COc1cc(C(=O)NC[C@](O)(c2cc3c(c(-n4ccc5c(C(F)(F)F)cccc54)n2)OC[C@]3(C)C(N)=O)C2CC2)cc2cn(C3CC3)nc12` [Example 869], under setting [1], the EC50 is over 200 nM.

In turn, `COc1cc(C(=O)NC[C@](O)(c2cc3c(c(-c4cc(C5CC5)ncc4F)n2)OC[C@]3(C)C(N)=O)C2CC2)cc2cn(C3CC3)nc12` [Example 432] gave an EC50 under setting [2] of under 200 nM.

Under setting [1], `COc1cc(C(=O)NC[C@](O)(c2cc3c(c(-c4ccnc(C(F)F)c4F)n2)OC[C@]3(C)C(N)=O)C2CC2)cc2cn(C3CC3)nc12` [Example 803] gave an EC50 of under 200 nM.

Turning to `COc1cc(C(=O)NC[C@](O)(c2cc3c(c(-c4ccnc(Cl)c4Cl)n2)OC[C@]3(C)C(N)=O)C2(F)CC2)cc2cn(C3(F)CC3)nc12` [Example 519], the concentration for a half-maximal effect (EC50) under setting [2] was under 200 nM.

Under setting [2], `C[C@]1(C(N)=O)COc2c1cc([C@@](O)(CNC(=O)c1ccc3nc(-c4ccc5nc(C(F)F)oc5c4)oc3c1)c1ccccc1)nc2-c1cc(Cl)c(F)cc1F` [Example 223] returned an EC50 of over 200 nM.

Under setting [2], `COc1cc(C(=O)NCC(O)(c2cc3c(c(-c4cc(Cl)c(F)cc4F)n2)OC[C@]3(C)C(N)=O)c2ccc(Cl)s2)cc2cn(C3CC3)nc12` (stereo partly shown) [Example 472] gave an EC50 of over 200 nM.

`COc1cc(C(=O)NC[C@@](O)(c2ccccc2)c2cc3c(c(-c4ccnc(F)c4Cl)n2)OC[C@]3(C)C(N)=O)cn2cc(C3CC3)nc12` [Example 664] had an EC50 under setting [1] of under 200 nM.

`COc1cc(C(=O)NC[C@](O)(c2cc3c(c(-n4ncc5c4CCCC5)n2)OC[C@]3(C)C(N)=O)C2CC2)cc2cn(C3(F)CC3)nc12` [Example 643] yielded a 50% effective concentration (EC50) under setting [1] of over 200 nM.

In the case of `COc1cc(C(=O)NC[C@](O)(c2cc3c(c(-c4ccnc(C(F)F)c4Cl)n2)OC[C@]3(C)C(N)=O)C(F)(F)F)cc2sc(C)nc12` [Example 551], the half-maximal effective concentration (EC50) under setting [2] is under 200 nM.

Turning to `COc1cc(-c2nc([C@@](O)(CNC(=O)c3cc(OC)c4nn(C5(F)CC5)cc4c3)c3ccccc3)cc3c2OC[C@]3(C)C(N)=O)c(F)cc1F` [Example 364], under setting [2], the EC50 was over 200 nM.

Consider `C[C@]1(C(N)=O)COc2c1cc([C@@](O)(CNC(=O)c1cc(OC3CC3)c3nn(C4(F)CC4)cc3c1)C1CC1)nc2-n1ncc2c(F)cccc21` [Example 651], for which the EC50 under setting [1] was under 200 nM.

On to `Cc1nc2c(OC3CC3)cc(C(=O)NC[C@@](O)(c3ccccc3)c3cc4c(c(-c5cc(Cl)c(F)cc5F)n3)OC[C@]4(C)C(N)=O)cc2o1` [Example 234], for which, under setting [2], the EC50 is under 200 nM.

Regarding `COc1cc(C(=O)NC[C@](O)(c2cc3c(c(-c4ccnc(C(C)C)c4Cl)n2)OC[C@]3(C)C(N)=O)C2CC2)cc2cn(C3CC3)nc12` [Example 810], under setting [1], the EC50 was under 200 nM.

As to `C[C@]1(C(N)=O)COc2c1cc([C@@](O)(CNC(=O)c1cc(Cl)c3nc(C4CC4)oc3c1)c1ccccc1)nc2-c1cc(Cl)c(F)cc1F` [Example 232], the EC50 under setting [2] was under 200 nM.

Under setting [1], `C[C@]1(C(N)=O)COc2c1cc([C@@](O)(CNC(=O)c1cc(Cl)c3nn(C4CC4)cc3c1)C1CC1)nc2-c1cc(C(F)(F)F)ncc1F` [Example 660] yielded an EC50 of under 200 nM.

Under setting [2], `C[C@]1(C(N)=O)COc2c1cc([C@@](O)(CNC(=O)c1cc(OC3CC3)n3nc(C4CC4)cc3c1)C1CC1)nc2-c1cc(C(F)(F)F)c(F)cc1F` [Example 328] had an EC50 of under 200 nM.

As to `C[C@]1(C(N)=O)COc2c1cc([C@@](O)(CNC(=O)c1cc(Cl)c3nn(C4CC4)cc3c1)C(F)(F)F)nc2-c1ccnc(C(F)(F)F)c1Cl` [Example 535], the concentration for a half-maximal effect (EC50) under setting [2] was under 200 nM.

Under setting [2], `COc1cc(C(=O)NC[C@@](O)(c2cnoc2)c2cc3c(c(-c4cc(Cl)c(F)cc4F)n2)OC[C@]3(C)C(N)=O)cc2cn(C3CC3)nc12` [Example 491] registered an EC50 of under 200 nM.

On to `COc1nccc(-c2nc([C@@](O)(CNC(=O)c3cc(OC)c4nc(C5CC5)oc4c3)C3CC(F)(F)C3)cc3c2OC[C@]3(C)C(N)=O)c1Cl` [Example 897], for which the EC50 under setting [1] was over 200 nM.

Under setting [1], `C[C@]1(C(N)=O)COc2c1cc([C@@](O)(CNC(=O)c1cc(OC3CC3)c3nn(C4CC4)cc3c1)C1CC1)nc2-n1ncc2c(F)cccc21` [Example 650] gave an EC50 of under 200 nM.

Turning to `COc1cc(C(=O)NC[C@](O)(c2cccc(F)c2)c2cc3c(c(-c4ccc(C(C)(C)O)cc4)n2)OC[C@]3(C)C(N)=O)cc2cn(C3(F)CC3)nc12` [Example 398], the EC50 under setting [2] is over 200 nM.

In the case of `COc1cc(C(=O)NC[C@@](O)(c2ccccc2)c2cc3c(c(-c4ccnc(C)c4Cl)n2)OC[C@]3(C)C(N)=O)cc2cn(C(F)F)nc12` [Example 694], under setting [1], the half-maximal effective concentration (EC50) was under 200 nM.

As to `COc1cc(C(=O)NC[C@@](O)(c2cccc(F)c2)c2cc3c(c(-c4ccncc4Cl)n2)OC[C@]3(C)C(N)=O)cc2cn(C3CC3)nc12` [Example 377], the half-maximal effective concentration (EC50) under setting [2] is over 200 nM.

Under setting [2], `COc1cc(C(=O)NC[C@](O)(c2cc3c(c(-c4cc(Cl)c(F)cc4F)n2)OC[C@]3(C)C(N)=O)C2CC2)cc2cc(Cl)cnc12` [Example 225] registered an EC50 of under 200 nM.

Turning to `COc1cc(C(=O)NC[C@](O)(c2cc3c(c(-c4ccnc(C(F)(F)F)c4Cl)n2)OC[C@]3(C)C(N)=O)C(F)(F)F)cn2cc(C3CC3)nc12` [Example 598], the 50% effective concentration (EC50) under setting [2] is under 200 nM.

Regarding `Cc1nccc(-c2nc([C@@](O)(CNC(=O)c3cc(OC4CC4)c4nn(C5(F)CC5)cc4c3)C3CC3)cc3c2OC[C@]3(C)C(N)=O)c1Cl` [Example 602], the EC50 under setting [2] was under 200 nM.

In the case of `COc1cc(C(=O)NC[C@@](O)(c2ccccc2)c2cc3c(c(-c4cc(Cl)c(F)cc4F)n2)OC[C@]3(C)C(N)=O)cc2cc(Cl)c(F)nc12` [Example 342], under setting [2], the EC50 was over 200 nM.

Under setting [2], `Cc1cc(C(=O)NC[C@@](O)(c2ccccc2)c2cc3c(c(-c4cc(Cl)c(F)cc4F)n2)OC[C@]3(C)C(N)=O)cc2cn[nH]c12` [Example 118] displayed an EC50 of under 200 nM.

Under setting [2], `COc1cc(C(=O)NC[C@@](O)(c2cccc(F)n2)c2cc3c(c(-c4cc(Cl)c(F)cc4F)n2)OC[C@]3(C)C(N)=O)cc2cn(C3(F)CC3)nc12` [Example 204] displayed an EC50 of under 200 nM.
